Here are results for eight molecules from patent US20260315436A1, “METHOD OF TREATING DISORDERS WITH SURF1 MALFUNCTION” (Cure Mito Foundation, priority 2023, published 2026).

Entries after “also recorded” stand apart in the source; their conditions may differ.

Series [1] has as its system GM28010 SURF1 mutant fibroblasts. The series can be described thus: Seahorse mitochondrial stress test, fibroblast cell line GM28010 (Experiment 1, single compounds). In kind it is cell-based, human. The following applies: 48 h; for ATP-linked respiration / basal respiration: galactose-cultured cells; for increase in ATP-linked respiration / increase in maximal respiration: both glucose and galactose-cultured cells. The protocol: (§1) In order to evaluate selected compounds' impact on mitochondrial function in patient-derived fibroblasts compared to controls, three seahorse assays were conducted, Exp. 1: Fibroblast cell line GM28010—single compounds; Exp. 2. Fibroblast cell line GM28010—combination of compounds+ Single compounds; and Exp. 3: Fibroblast cell line GM28012—single compounds. Seahorse XF24 Extracellular Flux Analyzers continuously measure oxygen concentration and proton flux in the cell supernatant over time (Wu et al., 2007). The oxygen concentration and proton flux measurements are converted in OCR and ECAR values. This enables a direct quantification of mitochondrial respiration and glycolysis. The aim of the seahorse assays is to evaluate the impact of selected compounds on mitochondrial function in patient-derived fibroblasts compared to controls. Compounds used in the seahorse assays include posacanazole, sertaconazole, glabridin, zinglibroside (ginsenoside Z R1), AM281, cysteamine bitrartate, PF-06447475, losmapimod, telepravir, miltefosine, incyclinide, poziotinib, and methylene blue.
Fibroblast cell line GM28010 is a primary human fibroblast cell line obtained from patients with SURF1 Leigh syndrome. It was purchased from the Coriell Cell Repositories (Camden, NJ, repository number GM28010). Cell line GM00038 was used as a healthy control for GM28010 and is a primary human fibroblast purchased from the Coriell Cell Repositories (Camden, NJ, repository number GM00038).
Fibroblasts were grown in glucose according to recommendation.
Cells were plated in XF96 plates in culture medium and were plated at 10,000 cells/well.
The day after plating, cells were treated with the compounds in Table 1. The treatments were completed in glucose medium and galactose medium. The compounds were tested at for 48 hours. The compounds were incubated at (37 C, 5% CO2) until the day of the experiment.
*Fibroblasts were run at passage numbers: GM28010 SURF1 Fibroblasts P5; GM00038F controls P9.
• Assay Medium: 10 mM glucose or galactose DMEM supplemented with 2 mM glutamine and 1 mM pyruvate. • Injection Ports for basal glucose: Port A: 2 μM oligomycin; Port B: 2.5 μM FCCP; Port C: 4 μM FCCP; and Port D: 2 μM rotenone and antimycin A.
Data were normalized to cell number per well after the run. The Hoechst-stained nuclei were counted with the Operetta High-Content Imager.
(§2) • Basal Oxygen Consumption (OCR): This reflects the cellular oxygen usage under basal conditions, encompassing both energy production (ATP turnover) and background oxygen leak from the mitochondria. • Oligomycin Injection: Oligomycin is a compound that inhibits ATP synthase, an enzyme crucial for ATP production within mitochondria. • Oligomycin-resistant Respiration: After oligomycin injection, minimal oxygen consumption persists, representing non-ATP linked oxygen leak from the mitochondria, often termed proton leak. • ATP-linked Respiration: This value is derived by subtracting the oligomycin-resistant respiration from the basal OCR. It signifies the oxygen consumption specifically linked to ATP production through mitochondrial oxidative phosphorylation. • Mitochondrial Bioenergetic Efficiency: This parameter reflects the percentage decrease in oxygen consumption observed after oligomycin injection, indicating the mitochondria's efficiency in utilizing oxygen for ATP generation. • FCCP Injection: FCCP is a chemical that disrupts the link between mitochondrial electron transport and ATP production. • Maximal Respiration: Following FCCP injection, the highest oxygen consumption rate is measured, representing the maximum capacity of the mitochondria to utilize oxygen for respiration. • Spare Respiratory Capacity: This parameter is calculated by subtracting basal respiration from maximal respiration.

Series [2] concerns GM28012 SURF1 fibroblasts. The series can be described thus: Seahorse mitochondrial stress test, fibroblast cell line GM28012 (Experiment 3, single compounds). In kind it is cell-based, human. The following applies: 48 h; for maximal respiration (maximal OCR) / respiration: glucose and galactose conditions; for total ATP: highest concentration (10 uM); for increase in respiration compared with GM28010: GM28012 vs GM28010. The protocol: as §1, §2
GM28010 primary human fibroblasts obtained from patients with SURF1 Leigh syndrome were purchased from the Coriell Cell Repositories (Camden, N.J.; repository number GM28010).
GM00038 primary human fibroblasts purchased from the Coriell Cell Repositories (Camden, N.J., repository number GM00038) and were used as a healthy control.
Fibroblasts were grown in glucose according to recommendation. Cells were plated in XF96 plates in culture medium and plated at 10,000 cells/well. The day after plating, the cells were treated with the compounds. The treatments completed in glucose medium and galactose medium. The compounds were tested at for 48 hours. The compounds were incubated at (37 C, 5% CO2) until the day of the experiment. The fibroblasts were run at passage numbers: GM28012 SURF1 Fibroblasts P5.
The assay medium was 10 mM glucose or galactose DMEM supplemented with 2 mM glutamine and 1 mM pyruvate. Injection Ports for basal glucose: Port A: 2 μM oligomycin; Port B: 2.5 μM FCCP; Port C: 4 μM FCCP; and Port D: 2 μM rotenone and antimycin A.
The data were normalized to cell number per well after the run. The Hoechst-stained nuclei were counted with a Operetta High-Content Imager.

Setting [3] is: 10 μM, listed as Ginsenoside Z R1 (Zinglibroside).
Setting [4] is: glucose and galactose conditions.
[5] abbreviates: glucose-cultured cells, listed as incyclinide.

Turning to `CC1(C)CC[C@]2(C(=O)O)CC[C@]3(C)C(=CC[C@@H]4[C@@]5(C)CC[C@H](O[C@@H]6O[C@H](C(=O)O)[C@@H](O)[C@H](O)[C@H]6O[C@@H]6O[C@H](CO)[C@@H](O)[C@H](O)[C@H]6O)C(C)(C)[C@@H]5CC[C@]43C)[C@@H]2C1` [Ginsenoside Z R1], the “ATP production through OXPHOS” value was “increase in ATP production” in series [1] (setting [3]); “both conditions: ↑ATP via” in series [1] (10 μM, listed as Zinglibroside); “increase in ATP production” in series [1] (10 μM, listed as zinglibroside); “increase in ATP production” in series [2]; “increased ATP production through OXPHOS” in series [2] (1 μM). Moreover, the “ATP production through glycolysis” value in series [1] (setting [3]) is on record as “increase in ATP production”; in series [1] (10 μM, listed as Zinglibroside) it was “both conditions: ↑ATP via”; in series [1] (10 μM, listed as zinglibroside), “increase in ATP production”; in series [2] it was “increase in ATP production”. The maximal respiration result in series [1] (setting [4]) is given as “did not result in changes”. Besides, the “total ATP production rate” value in series [2] (1 μM) is “increased ATP production through OXPHOS and total ATP production rate”. Besides, the “maximal respiration (maximal OCR)” value in series [2] was “did not result in changes”.

As to `Cc1c(C(=O)NN2CCOCC2)nn(-c2ccc(Cl)cc2Cl)c1-c1ccc(I)cc1` [AM281], in series [1] (5 and 10 μM), the “ATP production through glycolysis” value is “increase in ATP production primarily through glycolysis”. Besides, the respiration result in series [1] (setting [4]) is recorded as “did not result in major changes”. Moreover, in series [2], the ATP production rates result is recorded as “increased ATP production rates” and the “maximal respiration (maximal OCR)” value is listed as “dose-dependent decreased maximal respiration”. In series [2] (1 μM and 5 μM), the ATP via glycolysis result is “OCR. ↑ATP via glycolysis @”.

Regarding `NC(=O)C1=C(O)C[C@@H]2C[C@@H]3Cc4cccc(O)c4C(=O)C3=C(O)[C@]2(O)C1=O` [Incyclinide, incyclinide], the ATP-linked respiration entry was “↑ basal respiration and ATP-” in series [1]; “some increase” in series [1] (listed as incyclinide). In addition, the basal respiration entry is “↑ basal respiration and ATP-” in series [1]; “some increase” in series [1] (listed as incyclinide). In addition, the “all respiratory parameters measured” value in series [1] (glucose-cultured cells) and in series [2] (glucose-cultured cells) was “dose-dependent decrease” each time. Also, the toxicity result is “Toxicity in glucose” in series [1] (glucose-cultured cells), “some toxicity” in series [1] (setting [5]), “Toxicity observed in glucose” in series [2] (glucose-cultured cells) and “showed toxicity” in series [2] (setting [5]).

Consider `CC[C@@H]([C@H](C)O)n1ncn(-c2ccc(N3CCN(c4ccc(OC[C@@H]5CO[C@@](Cn6cncn6)(c6ccc(F)cc6F)C5)cc4)CC3)cc2)c1=O` [Posaconazole, posaconazole], for which the toxicity result in series [1] (all concentrations) is given as “toxic at all conc”. Besides, the respiration entry in series [1] (setting [4]) is recorded as “did not result in major changes”; in series [1] (glucose and galactose conditions, listed as Posacanazole), “↓ respiration”; in series [1] (higher concentrations) it was “decreased respiration”; in series [2] it was “decreased respiration”; in series [2] (listed as Posacanazole), “↓ respiration, total ATP rate”. The “total ATP production rate” value is listed as “compensation with increased glycolysis” in series [2] and “compensated by glycolysis” in series [2] (listed as Posacanazole). For the same molecule, the “total ATP” value in series [2] is “total ATP drops”; in series [2] (listed as Posacanazole), “(10 uM) where ATP drops”.

Take `C=CC(=O)N1CCC(Oc2cc3c(Nc4ccc(Cl)c(Cl)c4F)ncnc3cc2OC)CC1` [Poziotinib, poziotinib]: the respiration entry in series [1] (glucose and galactose conditions, listed as poziotinib) is given as “did not result in major changes”. For the same molecule, in series [1] (glucose-cultured cells), the glycolysis entry is given as “dose-dependent decrease”, the maximal respiration result is reported as “dose-dependent decrease” and the toxicity result was “some toxicity”. For the same molecule, in series [1] (listed as poziotinib), the “ATP production through glycolysis” value is on record as “decrease ATP production through glycolysis”.

`Cc1c(F)cc(C(=O)NC2CC2)cc1-c1ccc(C(=O)NCC(C)(C)C)cn1` [Losmapimod, losmapimod]: in series [1], the “ATP production through glycolysis” value was “conditions. ↓ ATP production”, the “increase in ATP-linked respiration” value is recorded as 12-15% increases in and the “increase in maximal respiration” value is recorded as 12-15% increases in. In series [1] (listed as losmapimod), the “increase in ATP-linked respiration” value is 12-15%, the “increase in maximal respiration” value is recorded as 12-15% and the “ATP production through glycolysis” value is “decrease in ATP production through glycolysis”. Also, the respiration result in series [1] (setting [4]) is “Increased respiration”. Further, the increase in respiration entry in series [1] (glucose and galactose culture conditions) is “up to 15%”. In series [2], the “ATP production through OXPHOS” value is “Increased ATP-linked respiration and ATP production through OXPHOS”; the “ATP production through glycolysis” value is on record as “glucose-cultured cells. ↓ATP”; the “total ATP production rate” value is recorded as “without changes; also recorded: maintained”; the “increase in respiration compared with GM28010” value is listed as “did not increase respiration as much”. For the same molecule, in series [2] (listed as losmapimod), the “increase in respiration compared with GM28010” value is listed as “not as impressive as was observed in GM28010”, the “ATP production through glycolysis” value was “decrease in ATP production through glycolysis” and the “total ATP production rate” value is given as “maintained”. In addition, the ATP-linked respiration result in series [2] (glucose-cultured cells, listed as losmapimod) is “increased in ATP-linked respiration”. The ATP-linked respiration entry in series [2] (medium not stated) is reported as “Increased ATP-linked respiration”.

For `N#Cc1cccc(-c2c[nH]c3ncnc(N4CCOCC4)c23)c1` [PF-06447475], in series [1], the “ATP production through OXPHOS” value was “increase in ATP production; also recorded: both conditions. ↑ ATP” and the “ATP production through glycolysis” value is given as “increase in ATP production; also recorded: both conditions. ↑ ATP”. Further, the maximal respiration entry in series [1] (setting [4]) is recorded as “did not result increase maximal respiration; also recorded: did not result in an increase”. In series [2], the “ATP production through glycolysis” value is “increase in ATP production glycolysis; also recorded: both conditions. ↑ ATP” and the “maximal respiration (maximal OCR)” value is “did not result increase maximal respiration”. Besides, the “total ATP production rate” value in series [2] (1 μM) is listed as “increased the total ATP Production rate”.

`CCCCCCCCCCCCCCCCOP(=O)([O-])OCC[N+](C)(C)C` [Miltefosine, miltefosine]: the respiration result in series [1] (glucose and galactose conditions, listed as miltefosine) is “did not result in major changes”; in series [2] (listed as miltefosine) it was “did not result in major changes”. The entries for the “ATP production through glycolysis” value in series [2] and in series [2] (listed as miltefosine) were “both conditions; ↑ in ATP” and “increase in ATP production through glycolysis”, respectively.
